Measured values from PubChem BioAssay (NCI).
“And” between values parts separate entries of the source, which are not always exact repeats. Identical values can stand only once.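 Dose response: 5 concentrations. Exposure: 48 h. Format: 96-well plates. Endpoint: linear interpolation; highest concentration if not reached. GI50 is the concentration that inhibits growth by half. Definition used: TGI = concentration required for complete inhibition of growth.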

Legend:
Assay in all cases: NCI-60 cell line screen, 48 h
DMS 114 small cell lung = system: DMS 114 small cell lung
HOP-62 NSCLC = system: HOP-62 NSCLC
LXFL 529 NSCLC = system: LXFL 529 NSCLC
M14 melanoma = system: M14 melanoma
OVCAR-4 ovarian = system: OVCAR-4 ovarian
RXF 393 renal = system: RXF 393 renal
TK-10 renal = system: TK-10 renal
COLO 205 colon = system: COLO 205 colon
DMS 273 small cell lung = system: DMS 273 small cell lung
NCI/ADR-RES ovarian = system: NCI/ADR-RES ovarian

Row | Structure (SMILES) | TGI (DMS 114 small cell lung) | TGI (HOP-62 NSCLC) [µM] | TGI (LXFL 529 NSCLC) | TGI (M14 melanoma) [µM] | TGI (OVCAR-4 ovarian) | TGI (RXF 393 renal) | TGI (TK-10 renal) | TGI (COLO 205 colon) | TGI (DMS 273 small cell lung) | GI50 (DMS 273 small cell lung) [µM] | TGI (NCI/ADR-RES ovarian) | GI50 (COLO 205 colon) | GI50 (DMS 114 small cell lung) [µM] | GI50 (LXFL 529 NSCLC) [µM] | GI50 (M14 melanoma) | GI50 (NCI/ADR-RES ovarian) [µM] | GI50 (OVCAR-4 ovarian) | GI50 (RXF 393 renal) | GI50 (TK-10 renal)
1 | CCCCCCCCCCCCCCC1OC(=O)c2ccccc21 (stereo not drawn) | 90.4 µM | > 100 | > 100 µM | > 100 | > 100 µM | > 100 µM | > 100 µM | – | – | – | – | – | – | – | – | – | – | – | –
2 | O=C1NC(=O)C2C(=O)NC(=O)C1C2(c1ccccc1)c1ccc(Cl)cc1 (stereo not drawn) | – | > 100 | > 100 µM | > 100 | > 100 µM | > 100 µM | > 100 µM | > 100 µM | > 100 µM | – | – | – | – | – | – | – | – | – | –
3 | CN(C)CCNC(=O)c1cccc2nc3c(Cl)cccc3nc12 | 12.1 µM | 26.3 | > 49.5 µM | > 36.8 | 27.6 µM | 16.6 µM | > 54.8 µM | > 37.3 µM | > 100 µM | – | – | – | – | – | – | – | – | – | –
4 | COC(=O)C(CC(=O)c1cc2c(cc1I)OCO2)Cc1cc(OC)c(OC)c(OC)c1I (stereo not drawn) | > 100 µM | > 100 | > 100 µM | – | – | > 100 µM | > 100 µM | > 100 µM | > 100 µM | – | – | – | – | – | – | – | – | – | –
5 | CC1CCC[P+](Cc2ccccc2)(c2ccccc2)CC1 (stereo not drawn) | 96.1 µM | > 100 | > 100 µM | > 100 | 90.4 µM | > 100 µM | > 100 µM | > 100 µM | > 100 µM | – | – | – | – | – | – | – | – | – | –
6 | COC(=O)c1c(OC)cccc1C(=O)O | > 100 µM | > 100 | > 100 µM | > 100 | > 100 µM | > 100 µM | > 100 µM | > 100 µM | > 100 µM | – | – | – | – | – | – | – | – | – | –
7 | O=C1Oc2cc3c(c4cccc1c24)OCN(c1ccc(Cl)cc1)C3 | > 57.2 µM | > 100 | 25 µM | > 57.8 | 96.6 µM | > 84.2 µM | > 100 µM | > 100 µM | > 100 µM | – | – | – | – | – | – | – | – | – | –
8 | CCOC(=O)CCCO | – | – | > 100 µM | > 100 | – | > 100 µM | > 100 µM | – | – | – | – | – | – | – | – | – | – | – | –
9 | CCCCn1/c(=N/C(=S)N(C)C)ss/c1=N\C(=S)N(C)C | – | > 100 | > 100 µM | > 100 | > 100 µM | > 100 µM | > 100 µM | – | > 100 µM | – | – | – | – | – | – | – | – | – | –
10 | COc1ccc(N=Cc2cc(OC)c(OC)c(OC)c2)cc1 | > 100 µM | > 100 | > 100 µM | – | > 100 µM | > 100 µM | > 100 µM | – | > 100 µM | 33 | – | – | – | – | – | – | – | – | –
11 | C#CC(C)(C)Oc1cc(O)c2c(=O)c3ccccc3n(C)c2c1 | > 100 µM | > 100 | > 100 µM | > 100 | > 100 µM | > 100 µM | > 100 µM | > 100 µM | > 100 µM | – | – | – | – | – | – | – | – | – | –
12 | O=C1/C(=C/c2ccccc2)CN(C(=O)Oc2ccc(Cl)cc2)C/C1=C\c1ccccc1 | 3.68 µM | 14.7 | 3.64 µM | 3.48 | 3.52 µM | 4.14 µM | 14.9 µM | 9.53 µM | 4.18 µM | – | – | – | – | – | – | – | – | – | –
13 | CC(=O)OCCc1cccnc1/C=N/O | > 100 µM | > 100 | > 100 µM | > 100 | > 100 µM | > 100 µM | > 100 µM | > 100 µM | > 100 µM | – | – | – | – | – | – | – | – | – | –
14 | Cc1cc(C)nc(NS(=O)(=O)c2ccc(NC(=O)c3cccc4c(=O)c5ccccc5[nH]c34)cc2)n1 | 35.2 µM | 56.7 | > 100 µM | 40.7 | 43.3 µM | – | 51 µM | 34.5 µM | 48.4 µM | – | – | – | – | – | – | – | – | – | –
15 | O=C(O)c1cc(S(=O)(=O)N=NC=C2c3ccccc3N(O)c3ccccc32)ccc1O | 50.8 µM | 37.5 | 28.6 µM | 79.2 | 19.8 µM | – | 50 µM | 37.6 µM | 34.6 µM | – | – | – | – | – | – | – | – | – | –
16 | C[Si](C)(C)c1ccc(CC2(Cc3ccc([Si](C)(C)C)cc3)CCNC2)cc1 | 3.87 µM | 6 | 4.79 µM | 3.31 | 4.52 µM | 3.14 µM | 35.5 µM | 3.19 µM | 3.42 µM | – | – | – | – | – | – | – | – | – | –
17 | COc1cc2c(cc1OC)C1C=NC(C(=O)O)(C2)c2ccccc21 (stereo not drawn) | > 100 µM | > 100 | > 100 µM | > 100 | > 100 µM | > 100 µM | > 100 µM | > 100 µM | > 100 µM | – | – | – | – | – | – | – | – | – | –
18 | COc1cc2c(c(O)c1C)C(=O)C(Cl)=CC2=O | 32.8 µM | > 69.2 | 19.4 µM | 16.5 | 33.7 µM | 13.1 µM | 15.3 µM | 4.96 µM | 34.5 µM | – | 66.7 µM | – | – | – | – | – | – | – | –
19 | OCc1c(-c2cccc3ccccc23)sc(-c2cccc3ccccc23)c1CO | 22.8 µM | 26.3 | 27.6 µM | 28.9 | – | – | 26.9 µM | 24.9 µM | 28.5 µM | – | – | – | – | – | – | – | – | – | –
20 | O=C(O)CCCc1ccc(N(CCCl)CCCl)cc1 | 32.4 µM and 179 µM | – | 35.4 µM and 199 µM | – | 43.5 µM and 327 µM and 284 µM | 23 µM and 118 µM and 97.7 µM | 70.8 µM and 471 µM and 221 µM | 45.9 µM and 271 µM and 333 µM | 28 µM and 161 µM | 3.84 | 329 µM and 118 µM | 22.6 µM and 201 µM | 7.84 | 19.5 | 14.9 µM and 91.3 µM | 39.4 | 24.7 µM and 185 µM | 9.53 µM and 57.7 µM | 25.4 µM and 81.4 µM
21 | O=[N+]([O-])c1ccc(NSc2ccccc2)cc1 | > 100 µM | > 100 | 70.9 µM | 64.5 | – | 40.9 µM | > 100 µM | > 100 µM | 33.7 µM | – | – | – | – | – | – | – | – | – | –
22 | Cc1nc2nnc(C)n2c2c1C(=O)Nc1ccccc1N2 | > 100 µM | > 100 | > 100 µM | > 100 | – | > 100 µM | > 100 µM | > 100 µM | > 100 µM | – | – | – | – | – | – | – | – | – | –
